Measured values as given in patent publication US20260125382A1, “COMPOUNDS FOR INHIBITING OR DEGRADING CDK2 AND/OR CDK9 AND MEDICINAL USE THEREOF” (KOREA RESEARCH INSTITUTE OF CHEMICAL TECHNOLOGY, priority 2022, published 2026).

Assays:
[1] = target: T1, CDK2 (Homo sapiens, UniProt P24941); assay: CDK protein degradation activity (Western blotting), CDK2; format: cell-based; details: MDA-MB-231 cells, 16 hours, Western blot
T1 construct: endogenous in cells; host or cells: MDA-MB-231
Procedure, shortened: (§1)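 MDA-MB-231; cmpd 100 nM / 1 μM / 10 μM final vs DMSO, 16 h. Triton X-100 lysates (pH 7.5, phosphatase/protease inhibitors) → SDS-PAGE → Western blot, anti-CDK2, anti-CDK9, tubulin loading control; densitometry.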

[2] = target: T2, CDK9 (Homo sapiens, UniProt P50750); assay: CDK protein degradation activity (Western blotting), CDK9; format: cell-based; details: MDA-MB-231 cells, 16 hours, Western blot
T2 construct: endogenous in cells; host or cells: MDA-MB-231
T2 sequence (P50750 whole entry): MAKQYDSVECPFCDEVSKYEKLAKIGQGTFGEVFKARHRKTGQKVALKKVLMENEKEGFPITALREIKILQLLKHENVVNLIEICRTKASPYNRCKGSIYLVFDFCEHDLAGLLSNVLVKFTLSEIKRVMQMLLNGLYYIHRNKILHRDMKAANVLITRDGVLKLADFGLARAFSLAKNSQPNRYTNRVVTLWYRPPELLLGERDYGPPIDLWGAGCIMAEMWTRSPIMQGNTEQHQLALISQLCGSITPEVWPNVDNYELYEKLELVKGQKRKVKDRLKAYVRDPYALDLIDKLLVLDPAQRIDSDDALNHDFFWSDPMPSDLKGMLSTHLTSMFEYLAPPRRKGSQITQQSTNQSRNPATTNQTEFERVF
Procedure, shortened: as §1

In the case of `O=C1CC[C@H](N2C(=O)c3cccc(OCC(=O)N4CCC5(CC(N6CCN(c7ccc(Nc8ncnc9c8ncn9[C@H]8C[C@@H](NC(=O)Cc9ccccc9)C8)cc7)CC6)C5)C4)c3C2=O)C(=O)N1` (stereo partly drawn) [Compound 264, N-((1s,3s)-3-(6-((4-(4-(6-(2-((2-(2,6-dioxopiperidin-3-yl)-1,3-dioxoisoindolin-4-yl)oxy)acetyl)-6-azaspiro[3.4]octan-2-yl)piperazin-1-yl)phenyl)amino)-9H-purin-9-yl)cyclobutyl)-2-phenylacetamide], the “Enzyme degradation CDK2 (% remaining) @ 0.1 μM” value [1] was 50%, the “Enzyme degradation CDK2 (% remaining) @ 1 μM” value [1] was 20% and the “Enzyme degradation CDK2 (% remaining) @ 10 μM” value [1] was 10%. For the same compound, the “Enzyme degradation CDK9 (% remaining) @ 0.1 μM” value [2] was 90%, the “Enzyme degradation CDK9 (% remaining) @ 1 μM” value [2] was 40% and the “Enzyme degradation CDK9 (% remaining) @ 10 μM” value [2] was 0%.
For `O=C1CC[C@H](N2C(=O)c3ccc(NCC(=O)N4CC(N5CCC6(CC5)CC(N5CCN(c7ccc(Nc8ncnc9c8ncn9C8CC(NC(=O)Cc9ccccc9)C8)cc7)CC5)C6)C4)cc3C2=O)C(=O)N1` (stereo partly drawn) [Compound 278, N-((1s,3s)-3-(6-((4-(4-(7-(1-((2-(2,6-dioxopiperidin-3-yl)-1,3-dioxoisoindolin-5-yl)glycyl)azetidin-3-yl)-7-azaspiro[3.5]nonan-2-yl)piperazin-1-yl)phenyl)amino)-9H-purin-9-yl)cyclobutyl)-2-phenylacetamide], the “Enzyme degradation CDK2 (% remaining) @ 0.1 μM” value [1] was 50/50/50%, the “Enzyme degradation CDK2 (% remaining) @ 1 μM” value [1] was 50/50/50% and the “Enzyme degradation CDK2 (% remaining) @ 10 μM” value [1] was 50/50/50%. The “Enzyme degradation CDK9 (% remaining) @ 0.1 μM” value [2] was 10%, the “Enzyme degradation CDK9 (% remaining) @ 1 μM” value [2] was 0% and the “Enzyme degradation CDK9 (% remaining) @ 10 μM” value [2] was 0%.
In the case of `Cc1cccc(C(=O)N[C@H]2C[C@@H](n3cnc4c(NCc5cccc(OCC6CCN(C(=O)CNc7ccc8c(c7)C(=O)N(C7CCC(=O)NC7=O)C8=O)CC6)c5)ncnc43)C2)n1` (stereo partly drawn) [Compound 96, N-((1s,3s)-3-(6-((3-((1-((2-(2,6-dioxopiperidin-3-yl)-1,3-dioxoisoindolin-5-yl)glycyl)piperidin-4-yl)methoxy)benzyl)amino)-9H-purin-9-yl)cyclobutyl)-6-methylpicolinamide], the “Enzyme degradation CDK2 (% remaining) @ 0.1 μM” value [1] was 60%, the “Enzyme degradation CDK2 (% remaining) @ 1 μM” value [1] was 40% and the “Enzyme degradation CDK2 (% remaining) @ 10 μM” value [1] was 50%. The “Enzyme degradation CDK9 (% remaining) @ 0.1 μM” value [2] was 10%, the “Enzyme degradation CDK9 (% remaining) @ 1 μM” value [2] was 0% and the “Enzyme degradation CDK9 (% remaining) @ 10 μM” value [2] was 0%.
With `O=C1CC[C@H](N2C(=O)c3ccc(NCC(=O)N4CCC(CC(=O)N5CCN(c6ccc(Nc7ncnc8c7ncn8C7CC(NC(=O)Cc8ccccc8)C7)cc6)CC5)CC4)cc3C2=O)C(=O)N1` (stereo partly drawn) [Compound 213, N-((1s,3s)-3-(6-((4-(4-(2-(1-((2-(2,6-dioxopiperidin-3-yl)-1,3-dioxoisoindolin-5-yl)glycyl)piperidin-4-yl)acetyl)piperazin-1-yl)phenyl)amino)-9H-purin-9-yl)cyclobutyl)-2-phenylacetamide] the “Enzyme degradation CDK2 (% remaining) @ 0.1 μM” value [1] was 50%, the “Enzyme degradation CDK2 (% remaining) @ 1 μM” value [1] was 70% and the “Enzyme degradation CDK2 (% remaining) @ 10 μM” value [1] was 50%. The “Enzyme degradation CDK9 (% remaining) @ 0.1 μM” value [2] was 70%, the “Enzyme degradation CDK9 (% remaining) @ 1 μM” value [2] was 30% and the “Enzyme degradation CDK9 (% remaining) @ 10 μM” value [2] was 10%.
`O=C1CC[C@H](N2C(=O)c3ccc(N4CCC(CCCN5CCN(c6ccc(Nc7ncnc8c7ncn8C7CC(NC(=O)Cc8ccccc8)C7)cc6)CC5)CC4)cc3C2=O)C(=O)N1` (stereo partly drawn) [Compound 262, N-((1s,3s)-3-(6-((4-(4-(3-(1-(2-(2,6-dioxopiperidin-3-yl)-1,3-dioxoisoindolin-5-yl)piperidin-4-yl)propyl)piperazin-1-yl)phenyl)amino)-9H-purin-9-yl)cyclobutyl)-2-phenylacetamide] was tested, and the “Enzyme degradation CDK2 (% remaining) @ 0.1 μM” value [1] was 70%, the “Enzyme degradation CDK2 (% remaining) @ 1 μM” value [1] was 90% and the “Enzyme degradation CDK2 (% remaining) @ 10 μM” value [1] was 100%. For the same compound, the “Enzyme degradation CDK9 (% remaining) @ 0.1 μM” value [2] was 40%, the “Enzyme degradation CDK9 (% remaining) @ 1 μM” value [2] was 30% and the “Enzyme degradation CDK9 (% remaining) @ 10 μM” value [2] was 10%.
